What was measured:
Test in all cases: Bliss excess, mean over the matrix (fraction); higher = more synergy
[1] = tested on: BxPC-3 (Pancreatic Carcinoma)
Method in brief: (§1)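 Bliss excess equals the observed combination effect minus the expected value EA + EB − EA·EB, where EA and EB are the effects of each agent alone. Combination Emax is the second-highest inhibition within the matrix. Inhibition was scaled from CellTiter-Glo 2.0 luminescence, with 0 set by vehicle wells and 1 by blank wells, after 72 hours of two-drug dosing of cells plated in 1536-well plates.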

AM-38 (Glioblastoma) = tested on: AM-38 (Glioblastoma)
Method in brief: as §1

[2] = tested on: MDA-MB-415 (Breast Carcinoma)
Method in brief: as §1

[3] = tested on: MONO-MAC-6 (Acute Myeloid Leukemia)
Method in brief: as §1

[4] = tested on: SiHa (Cervical Carcinoma)
Method in brief: as §1

[5] = tested on: BHT-101 (Thyroid Gland Carcinoma)
Method in brief: as §1

[6] = tested on: KP-4 (Pancreatic Carcinoma)
Method in brief: as §1

NCI-H2373 (Mesothelioma) = tested on: NCI-H2373 (Mesothelioma)
Method in brief: as §1

[7] = tested on: SK-CO-1 (Colorectal Carcinoma)
Method in brief: as §1

[8] = tested on: ZR-75-30 (Breast Carcinoma)
Method in brief: as §1

[9] = tested on: Raji (Burkitt's Lymphoma)
Method in brief: as §1

[10] = tested on: SNU-423 (Hepatocellular Carcinoma)
Method in brief: as §1

WM35 (Melanoma) = tested on: WM35 (Melanoma)
Method in brief: as §1

[11] = tested on: SCC-4 (Oral Cavity Carcinoma)
Method in brief: as §1

[12] = tested on: NAMALWA (Burkitt's Lymphoma)
Method in brief: as §1

[13] = tested on: IA-LM (Non-Small Cell Lung Carcinoma)
Method in brief: as §1

[14] = tested on: T84 (Colorectal Carcinoma)
Method in brief: as §1

[15] = tested on: PL4 (Pancreatic Carcinoma)
Method in brief: as §1

[16] = tested on: SUP-M2 (T-Cell Non-Hodgkin's Lymphoma)
Method in brief: as §1

IST-MEL1 (Melanoma) = tested on: IST-MEL1 (Melanoma)
Method in brief: as §1

| Compound | Bliss excess [1] | Bliss excess (AM-38 (Glioblastoma)) | Bliss excess [2] | Bliss excess [3] | Bliss excess [4] | Bliss excess [5] | Bliss excess [6] | Bliss excess (NCI-H2373 (Mesothelioma)) | Bliss excess [7] | Bliss excess [8] | Bliss excess [9] | Bliss excess [10] | Bliss excess (WM35 (Melanoma)) | Bliss excess [11] | Bliss excess [12] | Bliss excess [13] | Bliss excess [14] | Bliss excess [15] | Bliss excess [16] | Bliss excess (IST-MEL1 (Melanoma)) |
| --- | --- | --- | --- | --- | --- | --- | --- | --- | --- | --- | --- | --- | --- | --- | --- | --- | --- | --- | --- | --- |
| Cc1cc2ncnn2cc1Nc1ncc2c(n1)n(C1CCOCC1)c(=O)n2C [AZD7648] + C=CCn1c(=O)c2cnc(Nc3ccc(N4CCN(C)CC4)cc3)nc2n1-c1cccc(C(C)(C)O)n1 [AZD1775] (first compound max 10 µM, partner max 1 µM) | -0.0502 | 0.0125 | -0.027 | -0.0188 | 0.0306 | 0.0005 | 0.0217 | -0.0322 | -0.0846 | -0.0678 | -0.0359 | -0.0257 | -0.0364 | -0.0714 | -0.0101 | -0.0108 | -0.0288 | 0.0057 | 0.0377 | -0.011 |
| Cc1cc2ncnn2cc1Nc1ncc2c(n1)n(C1CCOCC1)c(=O)n2C [AZD7648] + CCN(CCO)CCCOc1ccc2c(Nc3cc(CC(=O)Nc4cccc(F)c4)[nH]n3)ncnc2c1 [AZD2811] (first compound max 10 µM, 7x7, partner max 1 µM) | -0.0052 | 0.0106 | -0.002 | 0.0123 | 0.0278 | -0.0091 | -0.0425 | -0.034 | -0.0524 | -0.0449 | 0.0312 | -0.0408 | -0.0036 | -0.0526 | 0.114 | 0.0156 | 0.0161 | -0.0041 | -0.0267 | 0.03 |
| Cc1cc2ncnn2cc1Nc1ncc2c(n1)n(C1CCOCC1)c(=O)n2C [AZD7648] + CN(C)CCCOc1ccc(-c2ccc3ncc4c(c3c2)n(C2CCOCC2)c(=O)n4C)cn1 [AZD0156] (first compound max 10 µM, 7x7, partner max 1 µM) | -0.0034 | -0.0139 | -0.0254 | -0.0869 | -0.0074 | 0.0659 | 0.0228 | -0.0077 | -0.0486 | -0.0321 | 0.0416 | -0.0133 | -0.0123 | -0.0164 | -0.0224 | -0.0133 | 0.0332 | -0.0153 | 0.0397 | -0.0228 |
| Cc1cc2ncnn2cc1Nc1ncc2c(n1)n(C1CCOCC1)c(=O)n2C [AZD7648] + C[C@@H]1COCCN1C2=NC(=NC(=C2)C3(CC3)[S@](=N)(=O)C)C4=C5C=CNC5=NC=C4 [AZD6738] (first compound max 10 µM, 7x7, partner max 10 µM) | 0.0044 | -0.0015 | 0.0354 | -0.0147 | 0.0466 | 0.0197 | 0.0727 | -0.102 | 0.0003 | -0.0224 | 0.0011 | 0.0426 | 0.0113 | -0.025 | -0.0089 | 0.0867 | 0.0189 | -0.0396 | 0.0562 | -0.0172 |
| Cc1cc2ncnn2cc1Nc1ncc2c(n1)n(C1CCOCC1)c(=O)n2C [AZD7648] + O=C(c1cc(Cc2n[nH]c(=O)c3ccccc23)ccc1F)N1CCN(C(=O)C2CC2)CC1 [Olaparib] (first compound max 10 µM, 7x7, partner max 10 µM) | -0.0712 | 0.0174 | -0.0121 | -0.0146 | -0.0389 | -0.0071 | -0.0225 | 0.0234 | -0.0466 | -0.0469 | 0.0011 | -0.0451 | -0.0239 | -0.0422 | -0.0119 | -0.042 | -0.0256 | -0.0364 | 0.0721 | -0.0517 |
| NC1(C(=O)N[C@@H](CCO)c2ccc(Cl)cc2)CCN(c2ncnc3[nH]ccc23)CC1 [Capivasertib] + CC(=O)c1c(C)c2cnc(Nc3ccc(N4CCNCC4)cn3)nc2n(C2CCCC2)c1=O [Palbociclib] (first compound max 10 µM, 7x7, partner max 10 µM) | -0.0396 | 0.0392 | -0.0234 | 0.0034 | -0.022 | -0.0022 | 0.029 | -0.0016 | -0.0319 | -0.0173 | 0.0521 | -0.0019 | 0.01 | -0.007 | 0.0053 | -0.0789 | -0.0175 | -0.0323 | 0.0198 | -0.0106 |
| NC1(C(=O)N[C@@H](CCO)c2ccc(Cl)cc2)CCN(c2ncnc3[nH]ccc23)CC1 [Capivasertib] + CC(C)n1c(=O)n(C)c2cnc3cc(F)c(-c4ccc(OCCCN5CCCCC5)nc4)cc3c21 [AZD1390] (first compound max 10 µM, 7x7, partner max 0.3 µM) | -0.0361 | -0.064 | -0.0297 | -0.0262 | -0.046 | -0.0197 | -0.0546 | -0.051 | -0.0173 | -0.0471 | -0.0461 | -0.0583 | -0.0773 | -0.045 | 0.0005 | -0.0371 | -0.0417 | -0.0225 | 0.0202 | -0.0392 |
| NC1(C(=O)N[C@@H](CCO)c2ccc(Cl)cc2)CCN(c2ncnc3[nH]ccc23)CC1 [Capivasertib] + CCN(CCO)CCCOc1ccc2c(Nc3cc(CC(=O)Nc4cccc(F)c4)[nH]n3)ncnc2c1 [AZD2811] (first compound max 10 µM, 7x7, partner max 1 µM) | -0.0545 | 0.0122 | 0.0001 | 0.0633 | 0.0067 | -0.0124 | -0.0379 | -0.079 | -0.0431 | -0.0115 | 0.0021 | -0.0676 | -0.0471 | -0.0671 | 0.0887 | -0.0113 | -0.104 | 0.0317 | -0.0005 | -0.0347 |

Reference: the supplement of paper PMC11061612
